Patent US20250136556A1, “NOVEL MODULATORS OF THE ARYL HYDROCARBON RECEPTOR AND METHODS OF USE THEREOF” (Allianthera (Suzhou) Biopharmaceutical Co., Ltd., priority 2021, published 2025)
pEC50, pIC50: −log10 of the molar value. Read-outs that look alike come from different tables or passages of the source.

Tests used:
[1] = tested on: AHR-regulated gene CYP1A1; experiment: AHR-regulated CYP1A1 expression in human monocytic U937 cell line (qPCR); conditions: U937 cells, 16 hours, CYP1A1 relative to GAPDH
Procedure: To evaluate the AHR agonist activity of the test compounds, quantitative PCR analysis was used to determine expression level of the AHR-regulated gene CYP1A1 in a human monocytic U937 cell line. U937 cells were seeded at a concentration of 5×10^5 cells/well in 200 μL of growth medium in 96-well cell culture microplates. CYP1A1 expression was induced with AHR agonists described in literature as a positive control or the test compounds for 16 hours. […] Unstimulated cells were used as the negative control. Taqman probes for human CYP1A1 (Hs01054797_g1) and human GAPDH (Hs02786624_g1) were used to analyze fold expression of CYP1A1 of GAPDH.

[2] = tested on: Human Nuclear Factor (erythroid-derived2)-like 2 (Nrf2); experiment: Nrf2 transcription factor activity reporter assay in human cell line (INDIGO luciferase reporter); type: cell-based; conditions: reporter cells; for pEC50: 24 hours incubation; for Nrf2 % activation to Tapinarof at 9 μM: 24 hours, value in brackets
Procedure: The Nrf2 reporter assay was performed following the protocol of the Human Nuclear Factor (erythroid-derived2)-like 2 (Nrf2) Reporter Assay System (INDIGO Bioscience, #IB10001). Nrf2 Reporter Cell was thawed and pre-incubated in Cell Recovery Medium (CRM) for 6 hours. The media was then removed and the cells were incubated with Compound Screening Medium (CSM) in the absence (negative control) or presence of increasing concentrations of test compounds (typical dilution: 128 pM, 640 pM, 3.2 nM, 16 nM, 80 nM, 400 nM, […] in duplicates) for 24 hours. For positive control, cells activated with CDDO or Nrf2 agonists described in literature. Following 24 hours incubation, the media was removed and Luciferase Detection Reagent (LDR) added. The firefly luciferase activity was quantified using a plate reader. Results were normalized by positive and negative controls.

[3] = biological target: T1, Human Aryl Hydrocarbon Receptor (AHR) (Homo sapiens, UniProt P35869); experiment: AHR agonist reporter assay in human cell line (INDIGO luciferase reporter); type: cell-based; conditions: reporter cells; for pEC50: 24 hours incubation; for AHR % activation to Tapinarof at 1 μM: 24 hours, value in brackets;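 on all read-outs here: firefly luciferase luminescence read on a plate reader, values normalized against positive and negative controls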
T1 construct: purchased INDIGO Bioscience IB06001-32; host or cells: AHR Reporter Cell (proprietary kit cells)
T1 sequence (P35869 11-848): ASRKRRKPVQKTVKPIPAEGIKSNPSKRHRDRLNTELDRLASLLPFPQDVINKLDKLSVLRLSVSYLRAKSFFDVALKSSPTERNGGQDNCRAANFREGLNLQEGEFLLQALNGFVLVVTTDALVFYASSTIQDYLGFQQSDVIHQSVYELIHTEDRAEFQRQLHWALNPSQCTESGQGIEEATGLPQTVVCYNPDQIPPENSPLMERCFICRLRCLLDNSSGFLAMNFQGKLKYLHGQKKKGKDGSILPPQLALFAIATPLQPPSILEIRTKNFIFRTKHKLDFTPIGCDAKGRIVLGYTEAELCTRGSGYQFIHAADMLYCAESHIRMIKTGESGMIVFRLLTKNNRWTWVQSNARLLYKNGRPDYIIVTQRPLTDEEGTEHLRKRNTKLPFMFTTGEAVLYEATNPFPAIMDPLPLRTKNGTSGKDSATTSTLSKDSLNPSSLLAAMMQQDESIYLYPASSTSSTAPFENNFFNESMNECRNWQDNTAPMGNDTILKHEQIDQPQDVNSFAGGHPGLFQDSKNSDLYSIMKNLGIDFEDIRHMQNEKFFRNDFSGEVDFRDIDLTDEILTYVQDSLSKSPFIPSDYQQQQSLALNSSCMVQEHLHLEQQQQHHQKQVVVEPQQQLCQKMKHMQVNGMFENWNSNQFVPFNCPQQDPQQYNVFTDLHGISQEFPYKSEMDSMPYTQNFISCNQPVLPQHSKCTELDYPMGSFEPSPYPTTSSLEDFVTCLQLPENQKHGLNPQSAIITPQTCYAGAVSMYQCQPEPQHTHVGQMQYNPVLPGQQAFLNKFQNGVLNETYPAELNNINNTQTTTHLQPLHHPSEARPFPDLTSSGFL
Procedure: The AHR reporter assay was performed following the protocol of the Human Aryl Hydrocarbon Receptor (AHR) Reporter Assay System (INDIGO Bioscience, #IB06001-32). AHR Reporter Cell was thawed and pre-incubated in Cell Recovery Medium (CRM) for 6 hours. […] Following 24 hours incubation, the media was removed and Luciferase Detection Reagent (LDR) added. The firefly luciferase activity was quantified using a plate reader. Results were normalized by positive and negative controls.

[4] = tested on: IL-6 gene expression in human primary M1 macrophage cells; experiment: AHR-regulated IL-6 inhibition in human primary M1 macrophage (qPCR); type: cell-based; conditions: LPS/IFN-gamma/GM-CSF, 24 hours; for pIC50: read-out: M1 assay IL6 -IC50
Procedure: Human M1 macrophage was differentiated from PBMC. Briefly, at day 1, monocytes were isolated from human PBMC using EasySe Human Monocyte Enrichment Kit without CD16 Depletion (Stemcell, 19058). The isolated monocytes were seeded at 3×10^7 cells in 15 cm dish using 30 ml medium containing 50 ng/ml GM-CSF (R&D, 215-GM-050/CF). At day 5, 30 ml fresh medium containing 50 ng/ml GM-CSF was added. At day 8, 1.5×10^5 cells/well were re-seeded into 24 wells plate, and 500 ul medium containing 10 ng/ml LPS (Sigma, L7770), 20 ng/ml IFN-gamma (PeproTech, 300-02), 50 ng/ml GM-CSF and the test compounds was added. […] The IL-6 expression was inhibited with AHR agonists described in literature as the positive inhibition control, alternatively the un-stimulated cells were used as the negative inhibition control. […] The primers for human GAPDH (F: […]; R: […]) and human IL-6 (F: […]; R: […]) were used to analyze fold expression of IL-6 of GAPDH by quantitative PCR.

[5] = first line of cell, read-out: Nrf2 reEC50
[6] = second line of cell, read-out: Nrf2 EC50, second line of cell (head does not name it)
[7] = first line of cell, read-out: AHR reEC50
[8] = second line of cell, read-out: AHR abEC50

Compound | CYP1A1 (% activation to Tapinarof at 1 μM) [1] | pEC50 [2, 5] | pEC50 [2, 6] | Nrf2 % activation to Tapinarof at 9 μM [2] | pEC50 [3, 7] | pEC50 [3, 8] | AHR % activation to Tapinarof at 1 μM [3] | M1 assay IL6 -max % inhibition (% to no treatment) [4] | pIC50 [4]
CC(C)c1ncc(/C=C/c2ccccc2)cc1O [Compound 103, (E)-2-isopropyl-5-styrylpyridine-3-ol] | 34.0% | 7.15 | 6.83 | 78.8% | 6.78 | 6.62 | 69.5% | 84.90% | 7.03
CC(C)c1c(O)cc(-c2nc3ccccc3o2)cc1O [Compound 49] | 95.6% | 7.46 | 7.13 | 69.7% | 4.42 | 7.27 | 104.6% | 90.30% | 8.50
